The test system of experiment [1] is 10 week old male FVB mice. As to the kind of experiment: Programmed electrical stimulation of the ventricles in anesthetized mice. The experiment is classed as in vivo, mouse. Particulars: for ERP versus 30 minute saline group (in words) / ERP (ventricular effective refractory period) / Heart rate / PR interval / QRST interval: anesthetized mice; for ERP versus 30 minute saline group (in words): 30 minute treatment, ANOVA; for ERP (ventricular effective refractory period) / Heart rate / PR interval / QRST interval: after 30 minute peritoneal infusion 33 pmol/kg/min following 330 pmol/kg bolus, n=3; for VT score: sum over three mice, after 30 minute infusion, higher score = greater resistance to arrhythmia induction. The method, then:
Programmed electrical stimulation of the ventricles was performed across the diaphragm via bipolar electrode catheter placed through an abdominal incision in 10 week old male FVB mice anesthetized with inhaled isoflurane, and was continuously monitored by electrocardiogram. Electrophysiologic parameters were analyzed at baseline and after a 30 minute peritoneal infusion of saline vs. 33 pmol/kg/min ANP or mANP, following a 330 pmol/kg bolus. […] The ventricular tachycardia (VT) score was obtained by scoring 1 point for induction of sustained VT with a single extrastimulus, 2 points for induction with double extrastimuli, and 3 points for failure to induce with single or double extrastimuli. Nonsustained VT (less than 1 second) was not scored. The score for each of three mice in a group was added. A higher score indicates greater resistance to arrhythmia induction.

The test system of experiment [2] is isolated perfused hearts obtained from male rats. As to the kind of experiment: Isolated heart model: atrial monophasic action potential and effective refractory period. Particulars: isolated rat heart; for effect on MAP duration (in words): 40-minute perfusion; for decrease in MAPD90 versus baseline: mANP n=8, ANP n=10. The method, then:
Atrial monophasic action potentials and effective refractory periods were measured in isolated perfused hearts obtained from male rats. Rapid cardiectomy was performed in male rats weighing 300-350 g, under general anesthesia with pentobarbital. The hearts were retrogradely perfused via the aorta at constant pressure and temperature (100 mmHg and 37° C.) with Kreb's-Henseleit buffer filtered at 0.22 μm and bubbled with 95% O2/5% CO2 at 37° C. and pH 7.4. Coronary perfusion flow was monitored constantly (T402, Transonic Systems, Ithaca, N.Y.) and remained >10 ml/min.
After establishment of a stable perfused heart preparation, the posterior atria were cut away to expose the left and right atrial endocardium and the atrioventricular (AV) node was mechanically crushed, resulting in AV dissociation. The right atrium was paced (Bloom Electrophysiology, via Fischer Imaging, Denver, Colo.) at a cycle length of 150 msec with a 0.1 msec pulse width using a bipolar platinum-tipped electrode (NuMED, Inc., Hopkinton, N.Y.), while the right ventricle was paced at a cycle length of 500 msec. A monophasic action potential (MAP) probe (Harvard Apparatus, Holliston, Mass.) was maintained in a single position on the anterior left atrial endocardium. Amplified signals (IsoDam, World Precision Instruments, Sarasota, Fla.) were digitally acquired at 2 kHz (USB-6210 and LabVIEW 8.2, National Instruments, Austin, Tex.). The MAP duration was measured at 90% repolarization on atrial beats without far field ventricular interference. The effective refractory period (ERP) was measured by delivering extrastimuli via the pacing catheter at decremental coupling intervals following at least 8 beats of a 150 ms cycle-length drive train. […] In separate heart preparations, the perfusion buffer was supplemented after baseline data acquisition with 100 nM of either ANP or mANP to assess the effect of both the wild-type and mutant hormones on MAP duration and ERP.
A two-sided t-test was used for comparison of data, assuming equal variance. Data are expressed as mean±S.E., and results were considered significant at p<0.05.

The mark [3] stands for this setting: 100 nM, 40 minutes perfusion, mean±S.E.

From patent US9193777B2, “Method of treating cardiac arrhythmia with long acting atrial natriuretic peptide(LA-ANP)” (Mayo Foundation for Medical Education and Research, priority 2009, dated 2015) come the findings set out here.

Marks after values point to notes of the source that are not given here.

Turning to `CC[C@H](C)[C@@H]1NC(=O)[C@H](CCCNC(=N)N)NC(=O)[C@H](CC(=O)O)NC(=O)[C@H](CCSC)NC(=O)[C@H](CCCNC(=N)N)NC(=O)CNC(=O)CNC(=O)[C@H](Cc2ccccc2)NC(=O)[C@@H](NC(=O)[C@H](CO)NC(=O)[C@H](CO)NC(=O)[C@H](CCCNC(=N)N)NC(=O)[C@H](CCCNC(=N)N)NC(=O)[C@H](CC(C)C)NC(=O)[C@@H](N)CO)CSSC[C@@H](C(=O)N[C@@H](CC(N)=O)C(=O)N[C@@H](CO)C(=O)N[C@@H](Cc2ccccc2)C(=O)N[C@@H](CCCNC(=N)N)C(=O)N[C@@H](Cc2ccc(O)cc2)C(=O)O)NC(=O)CNC(=O)[C@H](CC(C)C)NC(=O)CNC(=O)[C@H](CO)NC(=O)[C@H](CCC(N)=O)NC(=O)[C@H](C)NC(=O)CNC1=O` [ANP, atrial natriuretic peptide], in experiment [1], the “ERP versus 30 minute saline group (in words)” value was “not a significant difference”, the “ERP (ventricular effective refractory period)” value is on record as 28 + 2 msec, the Heart rate is 255 + 8 min^−1 and the PR interval is given as 73 + 4 msec. In experiment [1], the QRST interval is given as 23 + 1 msec and the VT score stood at 3. Further, the “effect on MAP duration (in words)” value in experiment [2] (100 nM) is given as “not significantly changed”. The “decrease in MAPD90 versus baseline” value in experiment [2] (setting [3]) amounted to 0.7 ± 1.7 ms.

In the case of “mANP: Full-length 40-amino acid mutant ANP: normal 28-amino acid mature peptide plus an anomalous carboxyl-terminus of 12 residues (SLRRSSCFGGRMDRIGAQSGLGCNSFRYRITAREDKQGWA; listed as Homo sapiens)”, in experiment [1], the “ERP versus 30 minute saline group (in words)” value is “significantly shorter”, the “ERP (ventricular effective refractory period)” value is recorded as 19 + 4* msec, the Heart rate is 243 + 16 min^−1 and the PR interval is 76 + 4 msec. For the same compound, in experiment [1], the QRST interval was 26 + 1 msec and the VT score is 5. Further, the “effect on MAP duration (in words)” value in experiment [2] (100 nM) is reported as “significant shortening”. Further, the “reduction in effective refractory period (ERP) versus baseline” value in experiment [2] (100 nM, 40 minutes perfusion, mean±S.E., mANP n=7, ANP n=6) was determined as 7.1 ± 2.4 ms. Further, the “decrease in MAPD90 versus baseline” value in experiment [2] (setting [3]) turned out to be 9 ± 2 ms. Moreover, the “effect on ERP (in words)” value in experiment [2] (100 nM, compared to wild-type ANP) is “significant shortening”. Moreover, in experiment [2] (after 40-minute perfusion with 100 nM peptide, shortened from 47 msec at baseline), the “MAP duration at 90% repolarization (MAPD90), representative MAP” value stood at 41 ms.
